Measured values taken from patent publication US12275766B2, “Neoantigen peptide mimics” (Janssen Biotech, Inc., priority 2020, dated 2025).
Ends that are not written are not given here.

Experiments:
[1] = tested on: CD8+ T cells from HLA-02:01+ PBMCs; assay: Frequency of double positive T cells for mimic and mutant tetramers (flow cytometry); type: cell-based, human
Experimental: Preparation of PBMCs: Vials of HLA-02:01^+ PBMCs frozen from donors (Hemacare) were removed from LN2 storage and rapidly thawed in a 37° C. water bath. The cells were transferred to a 50 mL conical tube containing 40 mL warm media (RPMI 1640 medium+10% fetal bovine serum (FBS)+1% Penicillin streptomycin solution), spun at 1300 rpm for 5 minutes at room temperature. The cell pellet was resuspended in 2 mL EASYSEP™ buffer and cells were counted using trypan blue live dead marker using a haemocytometer.
Enrichment of CD8+ T cells: To enrich the CD8+ T cells from the PBMCs, EASYSEP™ Human CD8+ T Cell Isolation Kit was used as per the manufacturer's instructions. Post enrichment, the cell pellet was resuspended in Dulbecco's phosphate-buffered saline (DPBS) and cells were counted as above. To determine the viability, LIVE/DEAD™ Fixable Violet Dead Cell Stain Kit was used at 0.5 μL/1×10^6/100 μL cell suspension and incubated at room temperature for 20 minutes. At the end of incubation period, FACS buffer (DPBS+2% FBS) was added and the cells were spun at 1300 rpm for 5 minutes at room temperature. The cell pellet was resuspended in FACS buffer, trypan blue was added, and the cell count was determined using a haemocytometer. The cell density was maintained at 1×10^6/50 μL FACS buffer. 3 μL Fc block was added per 1×10^6 cells and incubated for 10 minutes at room temperature in the dark. At the end of the incubation, mimic tetramer and the corresponding mutant tetramers were added at 3 μL tetramer/1×10^6 cells.
For frequency determination, 2×10^6 cells were used for test samples and 1×10^6 cells were used for control samples where negative tetramers were added in place of the mimic or mutant tetramers. A sample where no tetramers were added was kept as unstained control. The samples were incubated at room temperature for 30 minutes in dark. At the end of incubation period, CD8 antibody was added at 2 μL/1×10^6 cells and the samples were incubated for another 30 minutes at room temperature in dark. At the end of incubation, FACS buffer was added to the samples and the samples were spun at 1300 rpm for 5 minutes. The pellet was resuspended in 5 mL FACS buffer and the cells were spun at 1300 rpm for 5 minutes. The pellet was resuspended in 200 μL FACS buffer and events were acquired using the Novocyte flow cytometer.
The cells were acquired on the Novocyte flow cytometer and gated on forward scatter height (FSC-H) versus side scatter height (SSC-H). The cells high on FSC-H versus SSC-H were gated as lymphocytes. From the lymphocytes, live cells were gated by selecting the pacific blue negative cells on an FSC-H versus Pacific Blue-H plot. From the live cells, single cells were gated on FSC-H versus forward scatter area (FSC-A). CD8+ T cells were gated from the singlets as Alexa Fluor 700 positive cells. For gating phycoerythrin (PE) conjugated tetramer positive cells, the CD8^+ cells were gated on Alexa Fluor 700-H versus PE-H and the double positive cells were considered as CD8+ tetramer+. For gating allophycocyanin (APC) conjugated tetramer positive cells, the CD8^+ cells were gated on Alexa Fluor 700-H versus APC-H and the double positive cells were considered as CD8+tetramer+. All gates were set using the negative tetramers to eliminate non-specific binding. The dual positive cells that were mimic and mutant tetramer positive cells were gated by plotting PE-H versus APC-H within the CD8^+ cells.

[2] = target: HLA-A*02:01 (Homo sapiens, UniProt P04439, D140Y/D185E/D98H/E176V/E277Q/G131W/G231S/I119V/I121R/I166T/I218V/L300P/L318F/N151K/N90K/P208A/P217A/Q86G/Q94H/R138H/R169H/T345S); type: binding; details: for Average %: average of Exch I and Exch II, relative to exchange control peptide Pos (100%); for Exch I (%): first UV-induced peptide exchange; for Exch I (%) / Exch II (%): absorbance relative to exchange control peptide Pos (100%); for Exch II (%): second UV-induced peptide exchange
[3] = donor 17042765, frequency of double positive T cells at least 2-fold higher than the background (negative tetramers)
[4] = donor 19054445, frequency of double positive T cells at least 2-fold higher than the background (negative tetramers)

## Mutant (SEQ ID NO: 23) Mimic (SEQ ID NO: 78): pair of tetramers loaded with mutant VVPCEPPEV (PE) and mimic VLPCEPPEV (APC) (not fully specified; cysteine pairing not given here)
[1]; Donor ID 20001476
  Frequency (%) of double positive T cells within CD8+ compartment of donors: 0.153%
[1]; Donor ID 20001487
  Frequency (%) of double positive T cells within CD8+ compartment of donors: 0.000%
[1]; Donor ID 20061357
  Frequency (%) of double positive T cells within CD8+ compartment of donors: 0.006%
[1]; Donor ID 20061599
  Frequency (%) of double positive T cells within CD8+ compartment of donors: 0.000%
[1]; Donor ID 20061661
  Frequency (%) of double positive T cells within CD8+ compartment of donors: 0.000%
[1]; Donor ID 20062224
  Frequency (%) of double positive T cells within CD8+ compartment of donors: 0.000%
[1]; Donor ID 20062384
  Frequency (%) of double positive T cells within CD8+ compartment of donors: 0.023%

## Mutant (SEQ ID NO: 3) Mimic (SEQ ID NO: 32): pair of tetramers loaded with mutant YLDSGIHFG (APC) and mimic YLDSGIHFV (PE) (not fully specified)
[1]; Donor ID 20001476
  Frequency (%) of double positive T cells within CD8+ compartment of donors: 0.051%
[1]; Donor ID 20001487
  Frequency (%) of double positive T cells within CD8+ compartment of donors: 0.000%
[1]; Donor ID 20061357
  Frequency (%) of double positive T cells within CD8+ compartment of donors: 0.007%
[1]; Donor ID 20061599
  Frequency (%) of double positive T cells within CD8+ compartment of donors: 0.000%
[1]; Donor ID 20061661
  Frequency (%) of double positive T cells within CD8+ compartment of donors: 0.000%
[1]; Donor ID 20062224
  Frequency (%) of double positive T cells within CD8+ compartment of donors: 0.000%
[1]; Donor ID 20062384
  Frequency (%) of double positive T cells within CD8+ compartment of donors: 0.023%

## 7 (LVVVGAVGV) [compound 7]
[2]
  Average %: 4.5%
  Exch I (%): 4.3%
  Exch II (%): 4.6%

## Mutant (SEQ ID NO: 2) Mimic (SEQ ID NO: 29): pair of tetramers loaded with mutant YLDCGIHSG (APC) and mimic YLDCGIHSV (PE) (not fully specified; cysteine pairing not given here)
[1]; Donor ID 20001476
  Frequency (%) of double positive T cells within CD8+ compartment of donors: 0.075%
[1]; Donor ID 20001487
  Frequency (%) of double positive T cells within CD8+ compartment of donors: 0.000%
[1]; Donor ID 20061357
  Frequency (%) of double positive T cells within CD8+ compartment of donors: 0.095%
[1]; Donor ID 20061599
  Frequency (%) of double positive T cells within CD8+ compartment of donors: 0.000%
[1]; Donor ID 20061661
  Frequency (%) of double positive T cells within CD8+ compartment of donors: 0.000%
[1]; Donor ID 20062224
  Frequency (%) of double positive T cells within CD8+ compartment of donors: 0.000%
[1]; Donor ID 20062384
  Frequency (%) of double positive T cells within CD8+ compartment of donors: 0.000%

## 6 (LVVVGACGV) [compound 6]
[2]
  Average %: 7.0%
  Exch I (%): 6.5%
  Exch II (%): 7.5%

## Mutant (SEQ ID NO: 22) Mimic (SEQ ID NO: 75): pair of tetramers loaded with mutant LLGRNSFEM (PE) and mimic LLGRNSFEL (APC) (not fully specified)
[1]; Donor ID 20001476
  Frequency (%) of double positive T cells within CD8+ compartment of donors: 0.000%
[1]; Donor ID 20001487
  Frequency (%) of double positive T cells within CD8+ compartment of donors: 0.000%
[1]; Donor ID 20061357
  Frequency (%) of double positive T cells within CD8+ compartment of donors: 0.004%
[1]; Donor ID 20061599
  Frequency (%) of double positive T cells within CD8+ compartment of donors: 0.000%
[1]; Donor ID 20061661
  Frequency (%) of double positive T cells within CD8+ compartment of donors: 0.000%
[1]; Donor ID 20062224
  Frequency (%) of double positive T cells within CD8+ compartment of donors: 0.015%
[1]; Donor ID 20062384
  Frequency (%) of double positive T cells within CD8+ compartment of donors: 0.000%

## Mutant (SEQ ID NO: 13) Mimic (SEQ ID NO: 59): pair of tetramers loaded with mutant KTYPVQLWV (APC) and mimic KMYPVQLWL (PE) (not fully specified)
[1]; Donor ID 17042380
  Frequency (%) of double positive T cells within CD8+ compartment of donors: 0.04%
[1]; Donor ID 17042765
  Frequency (%) of double positive T cells within CD8+ compartment of donors: 0.13%
[1]; Donor ID 18047563
  Frequency (%) of double positive T cells within CD8+ compartment of donors: 0.01%
[1]; Donor ID 19053796
  Frequency (%) of double positive T cells within CD8+ compartment of donors: 0.06%
[1]; Donor ID 19054141
  Frequency (%) of double positive T cells within CD8+ compartment of donors: 0.02%
[1]; Donor ID 19054183
  Frequency (%) of double positive T cells within CD8+ compartment of donors: 0.01%
[1]; Donor ID 19054445
  Frequency (%) of double positive T cells within CD8+ compartment of donors: 0.38%
[1]; Donor ID 19054456
  Frequency (%) of double positive T cells within CD8+ compartment of donors: 0%
[1]; [3]
  T-cells positive for mutant-mimic pair: positive
[1]; donor 19053796
  T-cells positive for mutant-mimic pair: positive
[1]; [4]
  T-cells positive for mutant-mimic pair: positive

## Mutant (SEQ ID NO: 9) Mimic (SEQ ID NO: 45): pair of tetramers loaded with mutant ILNREIDFA (PE) and mimic ILNREIDFV (APC) (not fully specified)
[1]; Donor ID 17042380
  Frequency (%) of double positive T cells within CD8+ compartment of donors: 0.05%
[1]; Donor ID 17042765
  Frequency (%) of double positive T cells within CD8+ compartment of donors: 0.14%
[1]; Donor ID 18047563
  Frequency (%) of double positive T cells within CD8+ compartment of donors: 0.01%
[1]; Donor ID 19053796
  Frequency (%) of double positive T cells within CD8+ compartment of donors: 0.1%
[1]; Donor ID 19054141
  Frequency (%) of double positive T cells within CD8+ compartment of donors: 0.03%
[1]; Donor ID 19054183
  Frequency (%) of double positive T cells within CD8+ compartment of donors: 0.01%
[1]; Donor ID 19054445
  Frequency (%) of double positive T cells within CD8+ compartment of donors: 0.24%
[1]; Donor ID 19054456
  Frequency (%) of double positive T cells within CD8+ compartment of donors: 0.01%
[1]; [3]
  T-cells positive for mutant-mimic pair: positive
[1]; donor 19053796
  T-cells positive for mutant-mimic pair: positive
[1]; [4]
  T-cells positive for mutant-mimic pair: positive

## 99 (NLVPMVATL) [compound 99]
[2]
  Average %: 23.6%
  Exch I (%): 26.8%
  Exch II (%): 20.4%

## Mutant (SEQ ID NO: 18) Mimic (SEQ ID NO 68): pair of tetramers loaded with mutant QLWVDSTPL (APC) and mimic QLWVDSTPV (PE) (not fully specified)
[1]; Donor ID 17042380
  Frequency (%) of double positive T cells within CD8+ compartment of donors: 0.01%
[1]; Donor ID 17042765
  Frequency (%) of double positive T cells within CD8+ compartment of donors: 0%
[1]; Donor ID 18047563
  Frequency (%) of double positive T cells within CD8+ compartment of donors: 0%
[1]; Donor ID 19053796
  Frequency (%) of double positive T cells within CD8+ compartment of donors: 0%
[1]; Donor ID 19054141
  Frequency (%) of double positive T cells within CD8+ compartment of donors: 0%
[1]; Donor ID 19054183
  Frequency (%) of double positive T cells within CD8+ compartment of donors: 0%
[1]; Donor ID 19054445
  Frequency (%) of double positive T cells within CD8+ compartment of donors: 0.01%
[1]; Donor ID 19054456
  Frequency (%) of double positive T cells within CD8+ compartment of donors: 0%
[1]; donor 19053796
  T-cells positive for mutant-mimic pair: positive

## Mutant (SEQ ID NO: 16) Mimic (SEQ ID NO: 64): pair of tetramers loaded with mutant ALNNMFCQL (PE) and mimic ALNNMFCQV (APC) (not fully specified; cysteine pairing not given here)
[1]; Donor ID 20001476
  Frequency (%) of double positive T cells within CD8+ compartment of donors: 0.021%
[1]; Donor ID 20001487
  Frequency (%) of double positive T cells within CD8+ compartment of donors: 0.000%
[1]; Donor ID 20061357
  Frequency (%) of double positive T cells within CD8+ compartment of donors: 0.002%
[1]; Donor ID 20061599
  Frequency (%) of double positive T cells within CD8+ compartment of donors: 0.000%
[1]; Donor ID 20061661
  Frequency (%) of double positive T cells within CD8+ compartment of donors: 0.000%
[1]; Donor ID 20062224
  Frequency (%) of double positive T cells within CD8+ compartment of donors: 0.016%
[1]; Donor ID 20062384
  Frequency (%) of double positive T cells within CD8+ compartment of donors: 0.000%
